Laboratory results as given in patent US20240041827A1, “COMPOSITIONS FOR THE TREATMENT OF FAT RELATED CONDITIONS AND DISORDERS” (priority 2020, published 2024).

Experiments:
[1] = system: human visceral preadipocytes; assay: in vitro; details: for Average RZL-012 and collagenase induced cell death (% vs untreated cells): RZL12 0 μM, 24 h of incubation
Protocol: Human visceral preadipocytes were seeded in 96-well white clear bottom plates at 10,000 cells per well in 100 μl pre-adipocyte medium and incubated overnight at 37° C. 5% CO2. On the following day, adipogenic differentiation was induced by addition of 100 μl/well differentiation medium and incubation continued for 5 days. Adipogenic differentiation was verified by microscopic evaluation, addition of adipored reagents and fluorescent measurement at Ex485 nm/Em572 nm. […] Staurosporine (1 μM) and 0.2% DMSO were used as controls. Plates were incubated at 37° C. 5% CO2 for 2, 6 and 24 hours. Following incubation, cytotoxicity was measured using Cell Titer Glo 2.0 (Promega).
Test Item RZL-12 (1-300 μM) was prepared on the day of the testing as 150 mM stock solutions in DMSO. The 150 mM represents a 500×stock of the highest desired tested concentration. The 150 mM stock solution was first serially diluted in DMSO to acquire 500×stock solutions for each of the RZL-012 concentrations. The 500×stock solutions were then diluted 1:25 in medium to acquire 20×intermediate stock solutions. Finally, the 20×intermediate stock solutions were further diluted 1:20 in the assay (on the plate) that included seeded cells.
The 600 μM represents a 20× stock of the highest desired tested concentration. […] Finally, the 20×intermediate stock solutions were further diluted 1:20 in the assay plate that included seeded cells.
Human visceral pre-adipocytes (HPrAD-vis): HPrAD-vis cells (Lonza cat #PT-5005) were thawed at 37° C. and transferred into 50 ml tubes containing pre-adipocytes PGM-2 growth medium (PBM-2, 10% FBS, 1-glutamine, GA-1000). Cells were centrifuged at 300 g for 10 minutes, the supernatant was removed (Leaving about 1 ml of wash medium for not disrupting the cells) and 2 ml fresh PGM-2 medium was added. After resuspension, cells were counted and seeded in T-75 and T25 flasks at a density of 9,000 cells/cm^2 ([…], 225,000 cells/T25 flask). Medium was changed every 2-3 days until reached confluence of 70%.
Cells were sub-cultured only once, as soon as they reached 70% confluence. For this purpose, the culture medium of each flask was removed and cells were washed once with 5 ml PBS. The flask was shaken to ensure that the entire surface was covered and the PBS was removed. Then, 3 ml/T75 flask or 1 ml/T25 flask of fresh dedicated Trypsin/EDTA solution (from Lonza) was added and the flasks were incubated for 3-4 minutes at RT until ˜90% cells were detached. The Trypsin/EDTA solution was then neutralized by addition of 6 ml/T75 flask or 3 ml/T25 flask of full PGM-2 growth medium. Cells were collected in 50 ml tubes and centrifuged 10 minutes at 300 g. The supernatant was removed and the cells were resuspended in 3 ml fresh medium. Cells were then counted using a haemacytometer slide after being diluted 1:2 in trypan blue (SIGMA). For sub-culturing, cells were seeded in new T75 flasks at a density of 9,000 cells/cm^2 containing 15 ml fresh growth medium. Alternatively, the cells were seeded in 96-well culture plates at a density of 10,000 cells/well for the cell treatments.
HPrAD-vis cells: HPrAD-vis passaged once were seeded in 96-well plates as described above (10000cells/well in 100 μl medium) and allowed to settle overnight at 37° C., 5% CO2. Following day, adipogenic differentiation was induced by addition of 100 μl/well differentiation medium and incubated for 5 days. Adipogenic differentiation was verified by microscopic evaluation, addition of adipored reagents and fluorescent measurement at Ex485 nm/Em572 nm. In the morning of day 6, test and reference items were prepared as described above. Cells' medium was replaced with 90 μl fresh differentiation medium. […] Staurosporine (1 μM) and 0.2% DMSO were used as controls. Plates were incubated at 37° C. 5% CO2 for 2, 6 and 24 hours. Following incubation, cell viability was determined using the CellTiter-Gg® viability reagent (Promega) with reading of plates for luminescence. […]

[2] = system: Wi-38 fibroblasts; assay: Cell Titer Glo 2.0 cytotoxicity assay on Wi-38 fibroblasts; assay type: cell-based; details: cytotoxic reference control; after 24 hours of incubation

| Molecule | maximal cell death ([1]; 24 h, 1 µM) [%] | maximal cell death [2] [%] | Average RZL-012 and collagenase induced cell death (% vs untreated cells) ([1]; Collagenase 0.1 μM) [%] | Average RZL-012 and collagenase induced cell death (% vs untreated cells) ([1]; Collagenase 0.3 μM) [%] | Average RZL-012 and collagenase induced cell death (% vs untreated cells) ([1]; Collagenase 1 μM) [%] | Average RZL-012 and collagenase induced cell death (% vs untreated cells) ([1]; Collagenase 3 μM) [%] | Average RZL-012 and collagenase induced cell death (% vs untreated cells) ([1]; Collagenase 10 μM) [%] | Average RZL-012 and collagenase induced cell death (% vs untreated cells) ([1]; Collagenase 30 μM) [%] | concentrations at which the cytotoxic effect was observed ([1]; at all time points (2, 6, 24 h)) [nM] | effect of collagenase on RZL-012 cytotoxicity ([1]; collagenase 10 μM and 30 μM, 2 h time point) | effect of collagenase added together with RZL-012 on cell cytotoxicity ([1]; collagenase 0.1-1 μM, adipocytes, 6 h and 24 h time points, vs each compound alone) |
| --- | --- | --- | --- | --- | --- | --- | --- | --- | --- | --- | --- |
| CN[C@@H]1C[C@H]2O[C@@](C)([C@@H]1OC)n1c3ccccc3c3c4c(c5c6ccccc6n2c5c31)C(=O)NC4 [staurosporine, reference compound] | 89 | 89 | – | – | – | – | – | – | – | – | – |
| Collagenase | – | – | 7.28 | 6.53 | 25.57 | 33.27 | 65.68 | 79.93 | > 3000 | attenuated RZL-012 cytotoxicity | attenuate cell cytotoxicity |
